The subject of one test is HL-60. Kind of test: Cell Health Index (toxicity pseudo-probability over dose series) (index 0-1); higher = more cytotoxic / cell stress.
The test system of another test is Danio rerio embryo. Nature of the test: BMC10 any morphological effect or mortality at 120 hpf; higher = less toxic. How it is done: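 ZBEscreen: dechorionated Tropical 5D zebrafish embryos were exposed from 4 hpf in 96-well plates (1% DMSO, 28 °C). All compounds were first tested at 100 µM; hits were retested at 0.005-100 µM. Morphology and mortality were scored at 120 hpf and fitted as BMC10 (3-parameter log-logistic, extra risk). The embryonic photomotor response at 24 hpf and the larval photomotor response at 120 hpf are given as lowest effect levels (K-S test, p<0.01). NA = not significant up to 100 µM; NT = not tested.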
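Throughout, for Cell Health Index (toxicity pseudo-probability over dose series): HL-60 cells exposed 4 h at 37 °C to ten threefold dilutions spanning 5 nM to 100 µM, multiparametric flow cytometry features scored by machine-learning classification.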

As for `O=c1[nH]c(=O)n([C@H]2C[C@H](O)[C@@H](CO)O2)cc1CO` [5-Hydroxymethyl-2'-deoxyuridine], in the test with HL-60, the “Cell Health Index” value was 0.178. Besides, the “BMC10 any morphological effect or mortality” value with Danio rerio embryo is over 100 µM.
On the same counts, the results for `O=c1cc(-c2ccccc2)oc2c(O)c(O)ccc12` [7,8-Dihydroxyflavone] are 0.507 and over 100 µM.
As to `CCCOCCCCCCCCCC(=O)O` [10-propoxy-Decanoic acid], in the test with HL-60, the “Cell Health Index” value was found to be 0.168. Besides, the “BMC10 any morphological effect or mortality” value in the test with Danio rerio embryo is over 100 µM.
For the compound `O[C@H]1[C@@]2([H])[C@](CC[C@]2([H])[C@@](O)(C)CC/C=C(C)/C)(C)[C@]3(C)CC[C@]4([H])[C@@](CC[C@H](O[C@]5([H])O[C@H](CO)[C@@H](O)[C@H](O)[C@H]5O)C4(C)C)(C)[C@@]3([H])C1` [20(R)-Ginsenoside Rh2], in the test on HL-60, the “Cell Health Index” value was found to be 0.227. For the same compound, the “BMC10 any morphological effect or mortality” value with Danio rerio embryo is over 100 µM.
In the same order, the values of `O=C(O)CCCCCCCCCCCCCCCCCCCO` [20-hydroxy Arachidic acid] are 0.215 and over 100 µM.
In the same order, the values of `CC1(C)[C@@H]2CC[C@@]1(C)C(=O)C2` [(1R)-(+)-Camphor] are 0.135 and over 100 µM.
Turning to `Oc1cc(O)c2c(c1)O[C@@H](c1ccc(O)c(O)c1)[C@H](O)C2` [(-)-Catechin], the “Cell Health Index” value with HL-60 was 0.201. The “BMC10 any morphological effect or mortality” value with Danio rerio embryo is over 100 µM.
On to `O=C(O[C@@H]1Cc2c(O)cc(O)cc2O[C@@H]1c1ccc(O)c(O)c1)c1cc(O)c(O)c(O)c1` [(-)-Epicatechin gallate], for which, in the test with HL-60, the “Cell Health Index” value was found to be 0.807. In the test with Danio rerio embryo, the “BMC10 any morphological effect or mortality” value is over 100 µM.
In the same order, the values of `O=C(O[C@@H]1Cc2c(O)cc(O)cc2O[C@@H]1c1cc(O)c(O)c(O)c1)c1cc(O)c(O)c(O)c1` [(-)-Epigallocatechin gallate] are 0.854 and over 100 µM.
In the same order, the values of `Cl.c1ccc([C@H]2CN3CCSC3=N2)cc1` [(-)-Levamisole] are 0.173 and over 100 µM.
Regarding `Cl.NCCc1ccc(S(=O)(=O)F)cc1` [AEBSF], the “Cell Health Index” value in the test with HL-60 was found to be 0.32. In the test on Danio rerio embryo, the “BMC10 any morphological effect or mortality” value is over 100 µM.
On the same counts, the results for `c1ccc(CNCc2ccc(CN3CCCNCCNCCCNCC3)cc2)nc1` [AMD 3465 parent] are 0.232 and over 100 µM.
In the case of `N=C(N)NCCC[C@H](NC(=O)c1ccc2ccccc2c1O)C(=O)N1CCC[C@H]1C(N)=O.O=C(O)C(F)(F)F` [APC 366], the “Cell Health Index” value with HL-60 is 0.223. For the same compound, the “BMC10 any morphological effect or mortality” value in the test on Danio rerio embryo is over 100 µM.
For the compound `Nc1nc(NC2CC2)c2ncn([C@H]3C=C[C@@H](CO)C3)c2n1.O=S(=O)(O)O` [Abacavir], the “Cell Health Index” value in the test with HL-60 was determined as 0.116. Also, the “BMC10 any morphological effect or mortality” value in the test on Danio rerio embryo was over 100 µM.
On the same counts, the results for `CC(=O)N[C@@H]([C@@H](O)[C@H](O)[C@H](O)CO)[C@@H](O)CC(=O)C(=O)O` [Aceneuramic acid] are 0.172 and over 100 µM.
In the same order, the values of `Nc1nc2c(ncn2COCCO)c(=O)[nH]1` [Acyclovir] are 0.214 and over 100 µM.
In the same order, the values of `CC(C)(C)C(=O)OCOP(=O)(COCCn1cnc2c(N)ncnc21)OCOC(=O)C(C)(C)C` [Adefovir dipivoxil] are 0.258 and over 100 µM.
With `C1=C2CCCN[C@H]2[C@@H]2C[C@H]1[C@H]1CCCCN1C2` [Aloperine], the “Cell Health Index” value in the test on HL-60 is 0.209. Moreover, in the test with Danio rerio embryo, the “BMC10 any morphological effect or mortality” value is over 100 µM.
In the same order, the values of `Cl.NC12C[C@H]3C[C@@H](C1)C[C@@H](C2)C3` [Amantadine] are 0.195 and over 100 µM.
On the same counts, the results for `Cc1cccc(C)c1N(CC(=O)Nc1ccc(-c2ncon2)cc1)C(=O)C1CCS(=O)(=O)CC1` [Amenamevir] are 0.215 and over 100 µM.
With `O=c1cc(-c2ccc(O)c(-c3c(O)cc(O)c4c(=O)cc(-c5ccc(O)cc5)oc34)c2)oc2cc(O)cc(O)c12` [Amentoflavone], the “Cell Health Index” value in the test with HL-60 amounted to 0.74. In addition, the “BMC10 any morphological effect or mortality” value with Danio rerio embryo is over 100 µM.
Consider `CC(C)CN(C[C@@H](O)[C@H](Cc1ccccc1)NC(=O)O[C@H]1CCOC1)S(=O)(=O)c1ccc(N)cc1` [Amprenavir], for which, in the test on HL-60, the “Cell Health Index” value was found to be 0.181. In addition, in the test on Danio rerio embryo, the “BMC10 any morphological effect or mortality” value was over 100 µM.
On the same counts, the results for `COc1cc(OC)c2c(=O)nc(-c3cc(C)c(OCCO)c(C)c3)[nH]c2c1` [Apabetalone] are 0.344 and over 100 µM.
